From patent US4374857A, “Method of inhibiting L-tryptophan to serum albumin binding” (Her Majesty the Queen in right of Canada, as represented by …, priority 1982, dated 1983) come the findings set out here.

Molecules are shown by their SMILES. “Also recorded” adds a separate entry of the source.

This assay deals with T1, human serum albumin (Homo sapiens, UniProt P02768).
T1 construct: purchased Sigma, St. Louis, MO
The experiment in a line: Equilibrium dialysis of 14C-L-TRP binding to human serum albumin in presence of ligands (Scatchard plots). The note with it: for effect on L-TRP binding to albumin: one molar equivalent of ligand; for effect on L-TRP binding capacity of albumin: second and third molar equivalents of ligand; for reduction of the affinity (Ka) of L-TRP for albumin: two moles of ligand per mole albumin, equilibrium dialysis, 37° C., pH 7.4. As to the method: Human serum albumin (Fraction V) was purchased from Sigma, St. Louis, MO. The protein was defatted with activated charcoal according to Chen, R. F. (1967), J. Biol. Chem 242: 173-181 and monomeric albumin purified as previously described in Soltys, B. J. and Hsia, J. C. (1977), J. Biol. Chem. 252: 4043-4048. Protein concentration was determined by absorption of ultraviolet light, assuming E279 nm^1% =5.30 according to Clark, P., Rachinsky, M. R. and Foster, J. F. (1962), J. Biol. Chem. 237: 2509-2513. The sodium salt of cis-parinaric acid was dissolved in 1×10^-4 Malbumin in Ringer's buffer. The Ringer's buffer contained 110 mM NaCl, 5 mM KCl, 1.2 mM MgSO4, 1.2 mM KH2 PO4 and 10 mM Na2 HPO4 at a pH of 7.4 at 37° C. L-tryptophan, stearate and bilirubin were also purchased from Sigma, St. Louis, MO. cis-parinaric acid was purchased from Molecular Probes Inc., Plano, TX. L-[side chain-3 -^14 C]-tryptophan (^14 C-L-TRP) was purchased from New England Nuclear, Boston, Mass. Fatty acids and bilirubin were dissolved in albumin solution essentially as previously described in Soltys, B. J. and Hsia, J. C. (1977), J. Viol. Chem. 252: 4043-4048. Briefly, fatty acid or bilirubin (sodium salt) in methanol was dried under vacuum in dim light to form a thin film in a small glass vial. The albumin solution was added to the vial and gently blended on a Vortex mixer until optically clear.
Equilibrium dialysis cells (approximately 200 μl total capacity) with injection/sampling ports were used. Dialysis membranes (Canlab, Toronto, Ont), previously boiled in distilled water, were placed on one half-cell and then the two half-cells were bolted together. 100 ul of albumin (1×10^-4 M), or its ligand complex was added to one side of the dialysis cells, while 100 μl of a solution of ^14 C-L-TRP was added to the other side.
The cells were sealed with tape and incubated with slight oscillation at 37±0.5° C. in a jacketed incubator (Model 3314, Forma Scientific, Marietta, OH). The cells contained total amount of L-TRP varying from 0.5 to 20 times the number of moles of albumin. After six hours incubation, 25 μl samples were drawn from the albumin side and the buffer side of each cell. These were counted in 6 ml plastic scintillation vials (Canlab) containing 5 ml Aquasol (New England Nuclear) in a liquid scintillation counter (LS 9000, Beckman, Irvine, CA). A quench curve was constructed to correct for quenching of counts by bilirubin.
The equation for the Scatchard plot is
where n is the number of binding sites and Ka is the apparent association constant. Thus the r-intercept is n and the r/c-intercept is nK (a measure of binding capacity), while the negative slope yields the Ka.
Background: Equilibrium dialysis compares concentrations on both sides of a semipermeable membrane.

T1 sequence (P02768 25-609): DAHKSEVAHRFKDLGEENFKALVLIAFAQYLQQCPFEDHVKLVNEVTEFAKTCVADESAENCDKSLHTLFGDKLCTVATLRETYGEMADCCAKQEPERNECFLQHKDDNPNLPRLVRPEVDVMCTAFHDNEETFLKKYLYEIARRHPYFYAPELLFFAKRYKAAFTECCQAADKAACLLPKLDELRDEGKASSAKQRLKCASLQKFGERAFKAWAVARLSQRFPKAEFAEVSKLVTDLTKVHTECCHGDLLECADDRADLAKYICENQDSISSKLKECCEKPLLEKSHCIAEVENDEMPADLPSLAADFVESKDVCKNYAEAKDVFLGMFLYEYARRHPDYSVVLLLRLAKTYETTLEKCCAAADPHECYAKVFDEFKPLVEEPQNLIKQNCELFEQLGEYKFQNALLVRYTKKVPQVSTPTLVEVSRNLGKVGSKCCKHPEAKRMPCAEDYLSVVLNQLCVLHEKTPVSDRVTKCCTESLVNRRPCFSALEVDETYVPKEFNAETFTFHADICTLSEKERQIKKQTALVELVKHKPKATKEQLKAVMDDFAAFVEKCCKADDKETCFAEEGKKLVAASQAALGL

Take `CC\C=C/C=C/C=C/C=C\CCCCCCCC(=O)O` [cis-parinaric acid, cis, trans, trans, cis-9,11,13,15-octadecatetraenoic acid]: the “effect on L-TRP binding to albumin” value was “strong inhibitory effect”, the “effect on L-TRP binding capacity of albumin” value was “abolished” and the “reduction of the affinity (Ka) of L-TRP for albumin” value was 80%. Besides, the “displacement of albumin-bound tryptophan” value (2:1 ligand-to-albumin ratio) is on record as “up to 90%”. Besides, the “effect on specific (primary site) L-TRP binding capacity of albumin” value (4.0 moles of ligand per mole albumin) is “completely blocked; also recorded: completely abolished”. The “inhibitory effect on L-TRP binding capacity of albumin” value (higher molar ratios (2.0 to 4.0) of ligand) is given as “most effective”.

Regarding `C=CC1=C(C)/C(=C/c2[nH]c(Cc3[nH]c(/C=C4\NC(=O)C(C)=C4C=C)c(C)c3CCC(=O)O)c(CCC(=O)O)c2C)NC1=O` [bilirubin, reference compound], the “effect on L-TRP binding to albumin” value is reported as “did not affect; also recorded: little effect” and the “effect on L-TRP binding capacity of albumin” value was “progressive inhibition”.

On to `CCCCCCCCCCCCCCCCCC(=O)O` [stearate, reference compound], for which the “reduction of the affinity (Ka) of L-TRP for albumin” value is recorded as 20%.

In the case of `N[C@@H](Cc1c[nH]c2ccccc12)C(=O)O` [L-TRP, L-tryptophan], the “number of primary binding sites on human serum albumin” value (Scatchard plot without competing ligand (FIG. 1)) is “one”.
